Patent publication US6593335B1, “Potassium channel openers” (Abbott Laboratories, priority 1997, dated 2003)

Target: potassium channels (Sus scrofa, UniProt F1SR11)
Assay: Functional potassium channel opening activity in isolated Landrace pig bladder strips (field-stimulated twitch)
Settings: for Landrace Pig Bladder Index: ED50 for P1075 divided by ED50 for the test agonist, averaged over tissues; for Landrace Pig Bladder Efficacy (% P1075) / Emax: maximal efficacy relative to P1075, field stimulation 0.05Hz, 0.5 milli-seconds at 20 volts; for Landrace Pig Bladder pD2: negative logarithm of ED50; for Emax: pig
Experimental: The entire bladder was removed and ed into Krebs Ringer bicarbonate solution (composition, mM: NaCl,; dextrose, 1; KCl, 4.7; […] Propranolol (0.004 ed in all of the assays to block […]. The trigonal and dome […]. Strips 3-5 mm wide and 20 mm long were prepared from the cut in a circular fashion. The mucosal layer was removed. One end ationary glass rod and the other to a Grass FT03 transducer at a basal am. Two parallel platinum electrodes were included in the stationary ide field stimulation of 0.05Hz, 0.5 milli-seconds at 20 volts. […] Tissues were allowed to equilibrate for at least 60 minutes and primed with 80 mM KCl. A control concentration response curve (cumulative) was generated for each tissue using the potassium channel opener […] as the control agonist. […] After a 60 minute rinsing period, a concentration response curve (cumulative) was generated for the test agonist in the same fashion as that used for the control agonist […]. The maximal efficacy of each compound (expressed as % relative to […]) is reported. […] J. Physiol. 235, E97 (1980)), and agonist potencies were expressed as pD2 (the negative logarithm). Agonist potencies were also expressed as an index relative to […]. The index was calculated by dividing the ED50 for […] by the ED50 for the test agonist in a given tissue. Each tissue was used for only one test agonist, and the indices obtained from each tissue were averaged to provide an average index of potency.

Landrace Pig Bladder Index | Landrace Pig Bladder Efficacy (% P1075) | Landrace Pig Bladder pD2 | Emax | SMILES
0.37 | 97 % P1075 | 6.5 | – | O=C1CCCC2=C1C(c1ccc(Cl)c(Cl)c1)C1=C(CCS1(=O)=O)N2 (single isomer, unassigned; (-)) [Example 96, (−)-9-(3,4-dichlorophenyl)-2,3,5,6,7,9-hexahydrothieno[3,2-b]guinolin-8(4H)-one, 1,1-dioxide]
0.44 | 100 % P1075 | 6.5 | – | O=C1CCC2=C1C(c1ccc(F)c(Br)c1)C1=C(CCCS1(=O)=O)N2 (single isomer, unassigned; (-)) [Example 92]
0.018 | – | 5.5 | 99% | N#Cc1cccc(C2C3=C(CCCC3=O)NC3=C2S(=O)(=O)CC3)c1 (stereo not drawn) [Example 30, 9-(3-cyanophenyl)-2,3,5,6,7,9-hexahydrothieno [3.2-b]quinolin-8(4H)-one, 1,1-dioxide]
0.14 | – | 6.2 | 98% | O=C1CCC2=C1C(c1ccc(Cl)c([N+](=O)[O-])c1)C1=C(CCCS1(=O)=O)N2 (stereo not drawn) [Example 38, 9-(4-chloro-3-nitrophenyl)-3,4,5,6,7,9-hexahydrocyclopenta[b]thiopyrano [2.3-e]pyridin-8(2H)-one, 1,1-dioxide]
0.57 | – | 7.0 | 100% | O=C1CCCC2=C1[C@@H](c1ccc(F)c(Br)c1)C1=C(CCS1(=O)=O)N2 [Example 83, (+)-(9R)-9-(3-bromo-4-fluorophenyl)-2,3,5,6,7,9-hexahydrothieno [3.2-b]guinolin-8(4H)-one, 1,1-dioxide]
0.12 | – | 6.2 | 100% | O=C1CCCC2=C1C(c1ccc(Cl)c(C(F)(F)F)c1)C1=C(CCS1(=O)=O)N2 (single isomer, unassigned; (-)) [Example 172, (−)-9-[4-chloro-3-(trifluoromethyl)vhenyl]-2,3,5,6,79-hexahydrothieno[3,2-b]quinolin-8(4H)-one, 1,1-dioxide]
0.021 | – | 5.4 | 99% | O=[N+]([O-])c1cc(C2C3=C(CCS3(=O)=O)NC3=C2S(=O)(=O)CC3)ccc1Cl [Example 51, 8-(4-chloro-3-nitrophenyl)-2,3,4,5,6,8-hexahydrodithieno [3,2-b:2′,3′-e]pyridine, 1,1 7,7-tetraoxide]
0.12 | – | 5.6 | 84% | O=C1CCCC2=C1C(c1ccc(Cl)c(Cl)c1)C1=C(CCS1(=O)=O)N2 (single isomer, unassigned; (+)) [Example 95, (+)-9-(3,4-dichlorophenyl)-2,3,5,6,7,9-hexahydrothieno[3,2-b]quinolin-8(4H)-one, 1,1-dioxide]
0.53 | – | 6.6 | 97% | O=C1CCC2=C1C(c1ccc(Br)c(Br)c1)C1=C(CCS1(=O)=O)N2 (stereo not drawn) [Example 72]
0.15 | – | 6.2 | 98% | O=C1CCC2=C1C(c1csc([N+](=O)[O-])c1)C1=C(CCS1(=O)=O)N2 (stereo not drawn) [Example 69]
0.0034 | – | 4.6 | 95% | O=C1CCC2=C1C(c1ccc(F)c(Br)c1)C1=C(CCCS1(=O)=O)N2 (single isomer, unassigned; (+)) [Example 91]
0.062 | – | 5.9 | 100% | O=C1CCCC2=C1C(c1ccc(Br)s1)C1=C(CCS1(=O)=O)N2 (single isomer, unassigned) [Example 167, 9-(5-bromo-2-thienyl)-2,3,5,6,7,9-hexahydrothieno[3,2-b]quinolin-8(4H)-one, 1,1-dioxide]
